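Method: 48-hour compound exposure of cells in 96-well plates, five concentrations, linear interpolation of endpoints. GI50 = concentration required for 50% inhibition of growth. The concentration for full growth arrest is given as TGI.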 Where only a bound is given, the exact number is not on record here.

From PubChem BioAssay (NCI) come the findings set out here.

Among the test systems are SF-539 CNS; HCT-116 colon; NCI-H460 lung; KM12 colon; SNB-19 CNS; ACHN renal; HT29 colon; IGROV1 ovarian; SF-295 CNS; MALME-3M melanoma.
Assay in all cases: NCI-60 cell line screen, 48 h

For `O=c1c2c([nH]c3nccn13)CCC2`, the TGI with SF-539 CNS, with HCT-116 colon, with NCI-H460 lung, in the assay on KM12 colon, in the assay with SNB-19 CNS and in the assay on ACHN renal was over 10 µM in each case. The TGI in the assay with HT29 colon, in the assay on IGROV1 ovarian, with SF-295 CNS and in the assay with MALME-3M melanoma was over 10 µM in each case.
`C[C@H]1[C@H](C)N1CC(O)Cn1ccnc1[N+](=O)[O-]` (stereo partly drawn): the TGI with SF-539 CNS, with HCT-116 colon, in the assay with NCI-H460 lung, with KM12 colon, with SNB-19 CNS and with ACHN renal was over 100 µM each time. In addition, the TGI in the assay with HT29 colon, in the assay with IGROV1 ovarian, in the assay with SF-295 CNS and in the assay on MALME-3M melanoma was over 100 µM throughout.
As for `COc1ccc([C@H](CC(=O)O)N2CCN(CCCc3ccc4c(n3)NCCC4)C2=O)cn1`, the GI50 is over 100 µM in the assay with SF-539 CNS; 0.202 µM in the assay with HCT-116 colon; 4.36 µM in the assay on NCI-H460 lung; over 100 µM in the assay with KM12 colon; 0.426 µM in the assay with SNB-19 CNS; over 52 µM with ACHN renal. Further, the GI50 in the assay with HT29 colon was 0.794 µM; in the assay on IGROV1 ovarian it was over 38.1 µM; in the assay with SF-295 CNS, 47.6 µM; in the assay on MALME-3M melanoma it was over 100 µM. Moreover, the TGI in the assay on SF-539 CNS is over 100 µM; in the assay with HCT-116 colon, over 34.7 µM; in the assay on NCI-H460 lung it was over 100 µM; with KM12 colon, over 100 µM; with SNB-19 CNS it was over 100 µM; in the assay on ACHN renal, over 100 µM. Also, the TGI in the assay with HT29 colon, in the assay with IGROV1 ovarian, in the assay on SF-295 CNS and in the assay with MALME-3M melanoma was over 100 µM throughout.
In the case of `Cc1ccc(S(=O)(=O)N/N=C(\c2nc3ccc(Cl)cc3[nH]c2=O)C(O)c2ccco2)cc1` (stereo not drawn), the TGI in the assay on SF-539 CNS, in the assay with HCT-116 colon, in the assay on NCI-H460 lung, with KM12 colon, in the assay on SNB-19 CNS and in the assay with ACHN renal was over 100 µM in each case. Moreover, the TGI in the assay on HT29 colon, in the assay with IGROV1 ovarian, in the assay on SF-295 CNS and with MALME-3M melanoma was over 100 µM in each case.
`COc1cc(CNc2nc3c(N)cc(C(F)(F)F)cc3nc2-c2ccccc2)cc(OC)c1OC`: the GI50 with SF-539 CNS, in the assay on SNB-19 CNS and with IGROV1 ovarian was over 100 µM in each case. In addition, the TGI with SF-539 CNS, in the assay on HCT-116 colon, with NCI-H460 lung, in the assay on KM12 colon, in the assay on SNB-19 CNS and in the assay on ACHN renal was over 100 µM in each case. In addition, the TGI with HT29 colon, with IGROV1 ovarian, in the assay with SF-295 CNS and with MALME-3M melanoma was over 100 µM each time.
Turning to `COc1c(C(C)=O)c(OCCCCOc2c(C(C)=O)c(OC)c3ccoc3c2OC)c(OC)c2occc12`, the GI50 with SF-539 CNS is over 100 µM; in the assay on HCT-116 colon it was 3.71 µM; in the assay with NCI-H460 lung, over 24.3 µM; with KM12 colon it was 3.11 µM; in the assay with SNB-19 CNS it was over 28.9 µM; in the assay on ACHN renal, 3.6 µM. The GI50 was 4.06 µM in the assay with HT29 colon, 7.58 µM in the assay with IGROV1 ovarian, 1.35 µM in the assay with SF-295 CNS and 2.31 µM in the assay with MALME-3M melanoma. Further, the TGI with SF-539 CNS, in the assay on HCT-116 colon, in the assay with NCI-H460 lung, in the assay on KM12 colon, in the assay with SNB-19 CNS and with ACHN renal was over 100 µM each time. The TGI in the assay on HT29 colon was over 100 µM; in the assay with IGROV1 ovarian, over 100 µM; with SF-295 CNS, over 100 µM; in the assay with MALME-3M melanoma it was 8.3 µM.
In the case of `COc1cc(/C=C/c2ccc(C)cc2)cc(OC)c1OC`, the TGI is 7.07 µM in the assay with SF-539 CNS; 14.2 µM with HCT-116 colon; over 32.8 µM in the assay with NCI-H460 lung; 18.1 µM in the assay on KM12 colon; 38.2 µM in the assay on SNB-19 CNS; 35.5 µM with ACHN renal. Also, the TGI in the assay with HT29 colon is 9.45 µM; in the assay on IGROV1 ovarian it was over 91 µM; in the assay on SF-295 CNS it was 6.53 µM; with MALME-3M melanoma it was 10.5 µM.
`COc1ccc(-c2c(C)c(C(=O)O)nc(-c3ccc4c(O)c(OC)c5c(c4n3)=NC(C)(C)N=5)c2N)c(O)c1OC`: the TGI turned out to be 35.5 µM in the assay with SF-539 CNS; 52.1 µM in the assay on HCT-116 colon; 17 µM with NCI-H460 lung; 33.1 µM in the assay with KM12 colon; 95 µM in the assay on SNB-19 CNS; 27.7 µM in the assay with ACHN renal. For the same compound, the TGI with HT29 colon was over 100 µM; in the assay with IGROV1 ovarian, over 100 µM; with SF-295 CNS it was 38.6 µM; in the assay with MALME-3M melanoma, 17.7 µM.
For the compound `COc1cc2c(cc1OC)C(C(=O)O)C(c1ccccc1)N(C)C2=O` (stereo not drawn), the TGI in the assay with SF-539 CNS, in the assay with HCT-116 colon, with NCI-H460 lung, in the assay with KM12 colon, in the assay on SNB-19 CNS and in the assay with ACHN renal was over 100 µM throughout. Besides, the TGI with HT29 colon, in the assay on IGROV1 ovarian, in the assay on SF-295 CNS and in the assay on MALME-3M melanoma was over 100 µM throughout.
